Measured values from ChEMBL document CHEMBL1201862, “PubChem BioAssay data set” (2004).
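Exposure lasted 48 hours, with cells grown in 96-well plates and compounds tested at five concentrations. GI50: concentration for 50% inhibition of growth.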 Active and inactive are the calls of the source. No stated cut-off is given here; in the data, active = GI50 up to about 1.1 µM and inactive = higher.

What was measured:
Test in all cases: inhibition of tumour cell growth, NCI panel, 48 h
[1] = tested on: PC-3
[2] = tested on: SN12C
[3] = tested on: Hs-578T
[4] = tested on: SK-MEL-28
[5] = tested on: CCRF-CEM
[6] = tested on: NCI-H522
[7] = tested on: OVCAR-4
[8] = tested on: NCI-H226
[9] = tested on: CAKI-1
[10] = tested on: UACC-62
[11] = tested on: COLO 205
[12] = tested on: A549
[13] = tested on: OVCAR-5
[14] = tested on: SK-OV-3
[15] = tested on: U-251
[16] = tested on: MOLT-4
[17] = tested on: SF-539
[18] = tested on: LOX IMVI
[19] = tested on: HCC 2998
[20] = tested on: SNB-19
[21] = tested on: SK-MEL-2
[22] = tested on: MDA-MB-231
[23] = tested on: SK-MEL-5
[24] = tested on: MCF7
[25] = tested on: NCI-H460
[26] = tested on: HCT-116
[27] = tested on: RPMI-8226
[28] = tested on: SNB-75
[29] = tested on: IGROV-1
[30] = tested on: OVCAR-8
[31] = tested on: K562
[32] = tested on: A498
[33] = tested on: Malme-3M
[34] = tested on: UACC-257
[35] = tested on: MDA-N
[36] = tested on: T47D
[37] = tested on: HT-29
[38] = tested on: HCT-15
[39] = tested on: EKVX
[40] = tested on: SF-268
[41] = tested on: SW-620
[42] = tested on: HOP-62
[43] = tested on: ACHN
[44] = tested on: 786-0
[45] = tested on: HL-60
[46] = tested on: MDA-MB-435
[47] = tested on: SR
[48] = tested on: NCI/ADR-RES
[49] = tested on: DU-145
[50] = tested on: UO-31
[51] = tested on: NCI-H23
[52] = tested on: TK-10
[53] = tested on: BT-549
[54] = tested on: OVCAR-3
[55] = tested on: M14
[56] = tested on: KM12
[57] = tested on: SF-295
[58] = tested on: RXF 393

O=C1c2ccccc2C(=O)c2c(NCC(O)CO)ccc(NCC(O)CO)c21 (stereo not drawn)
GI50 [1]: 78 µM (inactive)
GI50 [2]: 71.3 µM (inactive)
GI50 [3]: 68.7 µM (inactive)
GI50 [4]: > 100 µM (inactive)
GI50 [5]: 41.4 µM (inactive)
GI50 [6]: 67.3 µM (inactive)
GI50 [7]: > 100 µM (inactive)
GI50 [8]: 51.4 µM (inactive)
GI50 [9]: 56.6 µM (inactive)
GI50 [10]: 51.5 µM (inactive)
GI50 [11]: 37.2 µM (inactive)
GI50 [12]: > 100 µM (inactive)
GI50 [13]: > 100 µM (inactive)
GI50 [14]: 40.9 µM (inactive)
GI50 [15]: 61.2 µM (inactive)
GI50 [16]: 32.2 µM (inactive)
GI50 [17]: 62.1 µM (inactive)
GI50 [18]: 28.3 µM (inactive)
GI50 [19]: 72.6 µM (inactive)
GI50 [20]: 43.2 µM (inactive)
GI50 [21]: 24.4 µM (inactive)
GI50 [22]: 97.9 µM (inactive)
GI50 [23]: 33.7 µM (inactive)
GI50 [24]: 21.3 µM (inactive)
GI50 [25]: 61 µM (inactive)
GI50 [26]: 67 µM (inactive)
GI50 [27]: 65 µM (inactive)
GI50 [28]: 56.4 µM (inactive)
GI50 [29]: 49.4 µM (inactive)
GI50 [30]: 69.2 µM (inactive)
GI50 [31]: 35.2 µM (inactive)
GI50 [32]: > 100 µM (inactive)
GI50 [33]: 91.2 µM (inactive)
GI50 [34]: > 100 µM (inactive)
GI50 [35]: 61.2 µM (inactive)
GI50 [36]: > 100 µM (inactive)
GI50 [37]: 56.6 µM (inactive)
GI50 [38]: 43.7 µM
GI50 [39]: > 100 µM (inactive)
GI50 [40]: 89.1 µM (inactive)
GI50 [41]: 45.9 µM (inactive)
GI50 [42]: 61.1 µM (inactive)
GI50 [43]: 40.5 µM (inactive)
GI50 [44]: 69.7 µM (inactive)
GI50 [45]: 63 µM (inactive)
GI50 [46]: > 100 µM (inactive)
GI50 [47]: 61.4 µM (inactive)
GI50 [48]: > 100 µM (inactive)
GI50 [49]: 38.6 µM (inactive)
GI50 [50]: 17.8 µM (inactive)
GI50 [51]: 96.2 µM (inactive)
GI50 [52]: 72.4 µM (inactive)
GI50 [53]: 75.7 µM (inactive)
GI50 [54]: 79.6 µM (inactive)

COc1nc(C#CC(C)(C)C)nc(OC)n1
GI50 [1]: 31 µM (inactive)
GI50 [2]: 21.9 µM (inactive)
GI50 [3]: 30.8 µM (inactive)
GI50 [4]: 37.2 µM (inactive)
GI50 [6]: 23.9 µM (inactive)
GI50 [7]: 16.4 µM (inactive)
GI50 [9]: 22.3 µM (inactive)
GI50 [10]: 14.8 µM (inactive)
GI50 [11]: 31.8 µM (inactive)
GI50 [12]: 25.4 µM (inactive)
GI50 [13]: 21.2 µM (inactive)
GI50 [14]: 55 µM (inactive)
GI50 [15]: 39.2 µM (inactive)
GI50 [16]: 35.6 µM (inactive)
GI50 [17]: 28.8 µM (inactive)
GI50 [18]: 16.6 µM (inactive)
GI50 [20]: > 100 µM (inactive)
GI50 [21]: 30.3 µM (inactive)
GI50 [22]: 20.9 µM (inactive)
GI50 [23]: 16 µM (inactive)
GI50 [24]: 19 µM (inactive)
GI50 [25]: 26.8 µM (inactive)
GI50 [26]: 15.7 µM (inactive)
GI50 [55]: 36.6 µM (inactive)
GI50 [28]: 33.6 µM (inactive)
GI50 [29]: 39.4 µM (inactive)
GI50 [30]: 17.8 µM (inactive)
GI50 [31]: 38 µM (inactive)
GI50 [32]: 41.9 µM (inactive)
GI50 [33]: 19 µM (inactive)
GI50 [34]: 48.3 µM (inactive)
GI50 [35]: 12.4 µM (inactive)
GI50 [36]: 55.5 µM (inactive)
GI50 [56]: 18.2 µM (inactive)
GI50 [37]: 40 µM (inactive)
GI50 [38]: 20.8 µM
GI50 [39]: 36 µM (inactive)
GI50 [40]: 26.2 µM (inactive)
GI50 [41]: 25 µM (inactive)
GI50 [42]: 34.4 µM (inactive)
GI50 [43]: 39 µM (inactive)
GI50 [44]: 23.8 µM (inactive)
GI50 [45]: 25.8 µM (inactive)
GI50 [57]: 32.4 µM (inactive)
GI50 [46]: 15 µM (inactive)
GI50 [47]: 5.21 µM (inactive)
GI50 [48]: 21 µM (inactive)
GI50 [58]: 31.9 µM (inactive)
GI50 [49]: 23.6 µM (inactive)
GI50 [50]: 28.7 µM (inactive)
GI50 [51]: 19.7 µM (inactive)
GI50 [52]: 27.4 µM (inactive)
GI50 [53]: 31.9 µM (inactive)
GI50 [54]: 28.6 µM (inactive)
